In patent US12344600B2, “c-Myc mRNA translation modulators and uses thereof in the treatment of cancer” (Anima Biotech Inc., priority 2022, dated 2025):

test system: c-Myc; assay: c-Myc immunofluorescence assay; type: cell-based, human; conditions: A549 cells, 24 hours, anti-c-Myc immunofluorescence
How it was run: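 A549 NSCLC cells grown 48 h, then treated 24 h with increasing compound concentrations; fixed in 4% paraformaldehyde, stained with anti-c-Myc antibody plus fluorescent secondary and DAPI. Per-cell c-Myc fluorescence quantified by high-content imaging at 20×; dose-response fitted by logistic regression to give EC50.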

| SMILES | Myc Efficacy (−LogEC50) |
| --- | --- |
| COc1ccc(-c2noc(N3CCC(C(=O)Nc4ccc(C)cc4)CC3)n2)cc1 [Compound 210, 1-(3-(4-methoxyphenyl)-1,2,4-oxadiazol-5-yl)-N-(p-tolyl)piperidine-4-carboxamide] | + (+ >3 and <5) |
| COc1ccc(-c2noc(C3CCC(C(=O)NCC4CCN(Cc5ccccc5)C4)CC3)n2)cc1 (centres unmarked) [Compound 172, (1s,4s)-N-((1-benzylpyrrolidin-3-yl)methyl)-4-(3-(4-methoxyphenyl)-1,2,4-oxadiazol-5-yl)cyclohexane-1-carboxamide] | ++ (++ ≥5 and <6) |
| O=C(NCC1(CN2CCC(Cc3ccccn3)CC2)CC1)N1CCN(c2nc(-c3ccc(OC(F)(F)F)cc3)no2)CC1 [Compound 450, N-((1-((4-(pyridin-2-ylmethyl)piperidin-1-yl)methyl)cyclopropyl)methyl)-4-(3-(4-(trifluoromethoxy)phenyl)-1,2,4-oxadiazol-5-yl)piperazine-1-carboxamide] | ++ (++ ≥5 and <6) |
| COc1ccc(-c2noc(N3CCC(C(=O)NC[C@@H]4CCN(CC5CCN(C)CC5)C4)CC3)n2)cc1 [Compound 434, (S)-1-(3-(4-methoxyphenyl)-1,2,4-oxadiazol-5-yl)-N-((1-((1-methylpiperidin-4-yl)methyl)pyrrolidin-3-yl)methyl)piperidine-4-carboxamide] | + (+ >3 and <5) |
| COc1ccc(-c2noc(N3CCC(C(=O)NCCOc4ccccc4)CC3)n2)cc1 [Compound 282, 1-(3-(4-methoxyphenyl)-1,2,4-oxadiazol-5-yl)-N-(2-phenoxyethyl)piperidine-4-carboxamide] | + (+ >3 and <5) |
| COc1ccc(-c2noc(N3CCC(C(=O)NC4CCN(c5ccccc5)C4)CC3)n2)cc1 (centres unmarked) [Compound 346, 1-(3-(4-methoxyphenyl)-1,2,4-oxadiazol-5-yl)-N-(1-phenylpyrrolidin-3-yl)piperidine-4-carboxamide] | ++ (++ ≥5 and <6) |
| CCN(CC)CCNC(=O)C1CCN(c2nc(-c3ccc(OC)cc3)no2)CC1 [Compound 114, N-(2-(diethylamino)ethyl)-1-(3-(4-methoxyphenyl)-1,2,4-oxadiazol-5-yl)piperidine-4-carboxamide] | + (+ >3 and <5) |
| COc1ccc(-c2noc(N3CCC(C(=O)Nc4ccc(Cl)cc4)CC3)n2)cc1 [Compound 192, N-(4-chlorophenyl)-1-(3-(4-methoxyphenyl)-1,2,4-oxadiazol-5-yl)piperidine-4-carboxamide] | + (+ >3 and <5) |
| COc1ccc(-c2noc(N3CCC(C(=O)NCC(C)(O)c4ccccc4)CC3)n2)cc1 (centres unmarked) [Compound 260, N-(2-hydroxy-2-phenylpropyl)-1-(3-(4-methoxyphenyl)-1,2,4-oxadiazol-5-yl)piperidine-4-carboxamide] | + (+ >3 and <5) |
| C#Cc1ccc(CN2CCC(CNC(=O)C3CCN(c4nc(-c5ccc(OC)cc5)no4)CC3)C2)cc1 (centres unmarked) [Compound 378, N-((1-(4-ethynylbenzyl)pyrrolidin-3-yl)methyl)-1-(3-(4-methoxyphenyl)-1,2,4-oxadiazol-5-yl)piperidine-4-carboxamide] | ++ (++ ≥5 and <6) |
| COc1ccc(-c2noc(N3CCN(C(=O)N4CCS(=O)(=O)CC4)CC3)n2)cc1 [Compound 146, (1,1-dioxidothiomorpholino)(4-(3-(4-methoxyphenyl)-1,2,4-oxadiazol-5-yl)piperazin-1-yl)methanone] | + (+ >3 and <5) |
| COc1ccc(-c2noc(N3CCC(C(=O)N[C@@H](C)c4ccccc4F)CC3)n2)cc1 [Compound 266, (S)-N-(1-(2-fluorophenyl)ethyl)-1-(3-(4-methoxyphenyl)-1,2,4-oxadiazol-5-yl)piperidine-4-carboxamide] | + (+ >3 and <5) |
| COc1ccc(-c2noc(C3CCC(C(=O)NCC4CC(=O)N(Cc5ccccc5)C4)CC3)n2)cc1 (centres unmarked) [Compound 177, (1r,4r)-N-((1-benzyl-5-oxopyrrolidin-3-yl)methyl)-4-(3-(4-methoxyphenyl)-1,2,4-oxadiazol-5-yl)cyclohexane-1-carboxamide] | ++ (++ ≥5 and <6) |
| O=C(NCCCN1CCC(Cc2ccccc2)CC1)C1CCN(c2nc(-c3ccc(OC(F)F)cc3)no2)CC1 [Compound 240, N-(3-(4-benzylpiperidin-1-yl)propyl)-1-(3-(4-(difluoromethoxy)phenyl)-1,2,4-oxadiazol-5-yl)piperidine-4-carboxamide] | +++ (+++ ≥6) |
| CCCN1CCC(CNC(=O)C2CCN(c3nc(-c4ccc(OC)cc4)no3)CC2)C1 (centres unmarked) [Compound 386, 1-(3-(4-methoxyphenyl)-1,2,4-oxadiazol-5-yl)-N-((1-propylpyrrolidin-3-yl)methyl)piperidine-4-carboxamide] | + (+ >3 and <5) |
| COc1ccc(-c2noc(N3CCC(C(=O)NCC4CCN(C5CCOC5)C4)CC3)n2)cc1 (centres unmarked) [Compound 370, 1-(3-(4-methoxyphenyl)-1,2,4-oxadiazol-5-yl)-N-((1-(tetrahydrofuran-3-yl)pyrrolidin-3-yl)methyl)piperidine-4-carboxamide] | + (+ >3 and <5) |
| COc1ccc(-c2noc(N3CCC(C(=O)NCC4(c5ccccc5)CCOCC4)CC3)n2)cc1 [Compound 273, 1-(3-(4-methoxyphenyl)-1,2,4-oxadiazol-5-yl)-N-((4-phenyltetrahydro-2H-pyran-4-yl)methyl)piperidine-4-carboxamide] | − (− ≤3) |
| COc1ccc(-c2noc(N3CCC(C(=O)NC4(C(O)c5ccccc5)CC4)CC3)n2)cc1 (centres unmarked) [Compound 258, N-(1-(hydroxy(phenyl)methyl)cyclopropyl)-1-(3-(4-methoxyphenyl)-1,2,4-oxadiazol-5-yl)piperidine-4-carboxamide] | + (+ >3 and <5) |
| COc1ccc(-c2noc(NCCCN3CCC(Cc4ccccc4)CC3)n2)cc1 [Compound 125, N-(3-(4-benzylpiperidin-1-yl)propyl)-3-(4-methoxyphenyl)-1,2,4-oxadiazol-5-amine] | + (+ >3 and <5) |
| COc1ccc(-c2noc(N3CCC(C(=O)NCC4CCN(CC5CCOCC5)C4)CC3)n2)cc1 (centres unmarked) [Compound 355, 1-(3-(4-methoxyphenyl)-1,2,4-oxadiazol-5-yl)-N-((1-((tetrahydro-2H-pyran-4-yl)methyl)pyrrolidin-3-yl)methyl)piperidine-4-carboxamide] | + (+ >3 and <5) |
| COc1ccc(-c2noc(N3CCC(C(=O)NCC4CCN(Cc5ccc(C)cn5)C4)CC3)n2)cc1 (centres unmarked) [Compound 223, 1-(3-(4-methoxyphenyl)-1,2,4-oxadiazol-5-yl)-N-((1-((5-methylpyridin-2-yl)methyl)pyrrolidin-3-yl)methyl)piperidine-4-carboxamide] | ++ (++ ≥5 and <6) |
| COc1ccc(-c2noc(N3CCN(C(=O)C4CCOCC4)CC3)n2)cc1 [Compound 148, (4-(3-(4-methoxyphenyl)-1,2,4-oxadiazol-5-yl)piperazin-1-yl)(tetrahydro-2H-pyran-4-yl)methanone] | + (+ >3 and <5) |
| COc1cccc(-c2noc(N3CCC(C(=O)NCC4CCN(Cc5ccc(C)cc5)C4)CC3)n2)c1 (centres unmarked) [Compound 187, 1-(3-(3-methoxyphenyl)-1,2,4-oxadiazol-5-yl)-N-((1-(4-methylbenzyl)pyrrolidin-3-yl)methyl)piperidine-4-carboxamide] | ++ (++ ≥5 and <6) |
